Laboratory results from patent US10670609B2, “Ytterbium as a surrogate cation to measure calcium flux” (Government of the United States, as represented by the …, priority 2017, dated 2020).
Like-named read-outs stand apart in the source and are kept apart here.

System: Human retinal pigmented epithelium cells (RPE)
Assay: NO bioassay: DAF-FM DA fluorescence as indicator of NO in RPE cells
Assay type: cell-based
[1] = RPE cells in PBS supplemented with Ca2+ and Mg2+
[2] = RPE cells without calcium (calcium-free PBS)
[3] = Table 3, DAF-FM DA NO fluorescence change vs control, WT RPE cells in PBS with 5 mM Ca2+ + Mg2+ + 8 mM pyruvate, agent 300 ppm unless stated

CC(=O)OCOC(=O)CN(CC(=O)OCOC(C)=O)c1ccccc1OCCOc1ccccc1N(CC(=O)OCOC(C)=O)CC(=O)OCOC(C)=O [BAPTA, 1,2-Bis(2-amino-phenoxy)ethane-N,N,N′,N′-tetraacetic acid tetrakis (acetoxymethyl ester)]
NO level (DAF-FM DA fluorescence) relative to control, in words: lower | [(E − C)/C] × 100 (N = 6, A.U. %): 11%

[Ca+2].[Cl-].[Cl-] [Ca^2+, calcium chloride]
NO level (DAF-FM DA fluorescence) relative to control, in words: slight decrease in NO

[Ce+3] [Ce^3+]
NO level (DAF-FM DA fluorescence) relative to control, in words [1]: dropped by varying degrees | NO level (DAF-FM DA fluorescence) relative to control, in words [2]: could not be restored | [(E − C)/C] × 100 (N = 3, A.U. %) [3]: −96%

O=C1c2c(O)cccc2Cc2cccc(O)c21 [Dithranol]
[(E − C)/C] × 100 (N = 3, A.U. %) [3]: −69%

[Fe+3] [Fe^3+]
NO level (DAF-FM DA fluorescence) relative to control, in words [1]: dropped by varying degrees | NO level (DAF-FM DA fluorescence) relative to control, in words [2]: could not be restored | [(E − C)/C] × 100 (N = 3, A.U. %) [3]: −93%

O=NO [Nitrite, sodium nitrite]
NO level (DAF-FM DA fluorescence) relative to control, in words: increased relative to control | [(E − C)/C] × 100 (N = 3, A.U. %): 2%

[Pr+3] [Pr^3+]
NO level (DAF-FM DA fluorescence) relative to control, in words [1]: dropped by varying degrees | NO level (DAF-FM DA fluorescence) relative to control, in words [2]: could not be restored | [(E − C)/C] × 100 (N = 3, A.U. %) [3]: −91% | decrease of NO (low DAF-FM DA fluorescence), modal (addition of agent to RPE cells, Table 3): 91%
